Measurements: patent US10258659B2, “Water soluble defructosylated pea extract, and use thereof as a prebiotic agent” (OLYGOSE, priority 2009, dated 2019)
Marks after values point to notes of the source that are not given here.

Details: human, in vivo

Abdominal noises F (frequency of the symptoms): 1.8 ^b | Abdominal noises I (intensity of the symptoms): 1.6 ^ab | Abdominal pain F (frequency of the symptoms): 1.6 ^ab | Abdominal pain I (intensity of the symptoms): 1.5 ^ab | Bloating F (frequency of the symptoms): 1.6 ^ab | Bloating I (intensity of the symptoms): 1.7 ^b | Cumulative grade: 21.3 ^b | Flatulence F (frequency of the symptoms): 2.9 ^b | Flatulence I (intensity of the symptoms): 2.5 ^b | Nausea F (frequency of the symptoms): 1.2 ^a | Nausea I (intensity of the symptoms): 1.1 ^a | Need to defecate F (frequency of the symptoms): 2.1 ^a | Need to defecate I (intensity of the symptoms): 1.7 ^a
Substance: β-galacto-oligosaccharides [β-GOS]
